Reference: PubChem BioAssay (NCI)
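48-hour exposure; five concentrations; linearly interpolated endpoints. GI50 = concentration required for 50% inhibition of growth. Definition used: TGI = concentration required for complete inhibition of growth.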

Tests used:
Assay in all cases: growth of human tumour cells (NCI), 48 h
[1] = test system: A498 renal
[2] = test system: CAKI-1 renal
[3] = test system: DU-145 prostate
[4] = test system: MDA-MB-231 breast
[5] = test system: MOLT-4 leukemia
[6] = test system: SK-MEL-2 melanoma
[7] = test system: UACC-62 melanoma
[8] = test system: SK-MEL-28 melanoma
[9] = test system: MCF7 breast
[10] = test system: MDA-MB-435

Row | Structure (SMILES) | GI50 [1] | TGI [1] | GI50 [2] | TGI [2] | GI50 [3] | TGI [3] | GI50 [4] | TGI [4] | GI50 [5] | TGI [5] | GI50 [6] | TGI [6] | GI50 [7] | TGI [7] | TGI [8] | TGI [9] | TGI [10] | GI50 [10] | GI50 [8] | GI50 [9]
1 | O=C(COc1ccc(-c2nc3cc(Cl)c(Cl)cc3[nH]2)cc1)N=Nc1c(O)[nH]c2ccccc12 | 3.62 µM | 18.6 µM | 6.91 µM | > 100 µM | 1.51 µM | > 100 µM | 1.09 µM | 3.43 µM | 3.57 µM | > 100 µM | 3.84 µM | 24.1 µM | 2.83 µM | > 100 µM | – | – | – | – | – | –
2 | Cc1cc(NS(=O)(=O)c2ccc(Nc3c4ccccc4nc4c(C(=O)Nc5ccc(S(=O)(=O)N=C(N)N)cc5)ccc(Cl)c34)cc2)no1 | – | > 100 µM | – | > 100 µM | – | – | – | – | – | 67.3 µM | – | – | – | 73.5 µM | > 100 µM | – | – | – | – | –
3 | Brc1ccc(C2SCc3nc4ccccc4n32)cc1 (configuration not stated) | – | – | – | 43 µM | – | – | – | – | – | > 100 µM | – | 30.4 µM | – | 21.1 µM | 16.7 µM | – | – | – | – | –
4 | O=C(NC(=O)c1cc2cc(Br)cc(Br)c2oc1=O)Oc1ccccc1 | – | > 100 µM | – | > 100 µM | – | – | – | – | – | > 100 µM | – | – | – | > 100 µM | > 100 µM | – | – | – | – | –
5 | Cc1ccc(S(=O)(=O)SCc2ccccc2)cc1 | – | > 100 µM | – | > 75.2 µM | – | – | – | – | – | 6.22 µM | – | > 75.6 µM | – | > 67.9 µM | > 100 µM | – | – | – | – | –
6 | CN1C(=O)C(=CN(C)c2ccccc2)C(=O)N(C)C1=O | – | > 100 µM | – | > 100 µM | – | – | – | – | – | > 100 µM | – | > 100 µM | – | > 100 µM | > 100 µM | – | – | – | – | –
7 | C#CC(=O)OCC#CCOC(=O)C#C | – | > 100 µM | – | 39.1 µM | – | 90.3 µM | – | 75.6 µM | – | – | – | 40.1 µM | – | 56.7 µM | – | 44.2 µM | > 100 µM | – | – | –
8 | Cc1cc2c(cc1C)[n+](Cc1ccc3ccccc3n1)cn2Cc1ccc2ccccc2n1 | 1.04 µM | 2.36 µM | – | – | 1.6 µM | 6.56 µM | 1.09 µM | 2.52 µM | 1.46 µM | 5.15 µM | 1.57 µM | 3.12 µM | 0.612 µM | 2.1 µM | 2.47 µM | – | 2.05 µM | 0.571 µM | 0.992 µM | –
9 | CN(C)c1ccc(/C=N/NC(=O)c2cccc3ccccc23)c(Cl)c1 | 0.422 µM | 6.26 µM | 0.527 µM | 8.04 µM | 4.07 µM | > 100 µM | 11.5 µM | > 100 µM | 2.31 µM | > 100 µM | 0.815 µM | 16.5 µM | 0.978 µM | > 100 µM | > 100 µM | > 100 µM | – | – | 3.5 µM | 0.348 µM
10 | CC12CC(Sc3ccccc3N1)c1ccccc1O2 (configuration not stated) | – | 33 µM | – | 42.4 µM | – | – | – | – | – | 44.6 µM | – | 25.4 µM | – | 30.7 µM | 30.4 µM | – | – | – | – | –
11 | O=C(Sc1sc(=S)sc1SC(=O)c1ccccc1)c1ccccc1 | – | 78 µM | – | > 100 µM | – | – | – | – | – | > 100 µM | – | > 100 µM | – | 53 µM | > 100 µM | – | – | – | – | –
12 | CCCCN1CCN(c2ccc3nc(-c4ccc5nc(-c6ccc(OCC)c(OCC)c6)[nH]c5c4)[nH]c3c2)CC1 | 1.18 µM | 2.47 µM | 1.04 µM | 2.52 µM | 1 µM | 2.21 µM | 1.69 µM | 3.28 µM | 1.22 µM | 3.86 µM | – | – | 0.686 µM | 2.18 µM | 2.22 µM | – | 2.39 µM | 1.09 µM | 1.01 µM | –
13 | COc1ccc(C#CC2=C(c3cc(OC)c(OC)c(OC)c3)C(=O)OC2)cc1 | 8.21 µM | 30.1 µM | 1.18 µM | 2.99 µM | – | – | 32 µM | > 50 µM | 1.1 µM | > 50 µM | 42.5 µM | > 50 µM | 5.23 µM | 18.4 µM | > 50 µM | > 50 µM | 7.82 µM | 1.49 µM | 9.28 µM | 0.948 µM
14 | O=S(=O)(NCCO)c1cc[c]([Sb](=[O])([OH])[OH])cc1 | > 100 µM | > 100 µM | > 100 µM | > 100 µM | > 100 µM | > 100 µM | > 100 µM | > 100 µM | > 100 µM | > 100 µM | > 100 µM | > 100 µM | > 100 µM | > 100 µM | > 100 µM | – | > 100 µM | > 100 µM | > 100 µM | –
15 | Cc1cc2c(=O)cc(-c3ccc(F)cc3)oc2c(C(=O)O)c1C | – | – | – | > 100 µM | – | – | – | – | – | > 100 µM | – | > 100 µM | – | > 100 µM | > 100 µM | – | – | – | – | –
